The target of test [1] is Cholinesterase (Equus caballus) (UniProt P81908). The test is described as follows: Inhibition of equine butyrylcholinesterase using butyrylthiocholine as substrate at 10 uM incubated for 20 mins prior to substrate addition measured after 3 mins by Ellman's method.
The target of test [2] is T1, Acetylcholinesterase (Bos taurus, UniProt P23795).
T1 sequence (P23795 whole entry): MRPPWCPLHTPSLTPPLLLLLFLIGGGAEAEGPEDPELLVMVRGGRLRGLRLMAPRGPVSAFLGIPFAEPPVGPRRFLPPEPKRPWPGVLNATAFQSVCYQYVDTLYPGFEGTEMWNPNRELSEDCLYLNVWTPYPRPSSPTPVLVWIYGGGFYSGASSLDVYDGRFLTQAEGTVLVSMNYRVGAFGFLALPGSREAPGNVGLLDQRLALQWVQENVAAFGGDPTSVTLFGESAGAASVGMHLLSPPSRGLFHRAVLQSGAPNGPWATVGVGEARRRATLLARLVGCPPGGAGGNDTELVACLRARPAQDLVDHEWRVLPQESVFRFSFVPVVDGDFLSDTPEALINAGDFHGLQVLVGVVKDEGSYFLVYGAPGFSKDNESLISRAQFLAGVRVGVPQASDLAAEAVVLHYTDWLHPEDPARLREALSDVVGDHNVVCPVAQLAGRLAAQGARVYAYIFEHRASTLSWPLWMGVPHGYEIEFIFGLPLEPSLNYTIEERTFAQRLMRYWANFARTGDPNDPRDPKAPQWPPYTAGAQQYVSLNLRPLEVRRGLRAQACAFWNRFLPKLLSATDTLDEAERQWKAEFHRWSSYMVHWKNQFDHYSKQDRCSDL
Description: Inhibition of bovine acetylcholinesterase using acetylcholine iodide as substrate incubated for 20 mins prior to substrate addition measured after 3 mins by Ellman's method

Another test addresses Cholinesterase (Equus caballus, UniProt P81908).
The target of test [3] is Acetylcholinesterase (Homo sapiens, UniProt P22303). The test is described as follows: Inhibition of human acetylcholinesterase.
Test [4] addresses T1, Acetylcholinesterase. Put plainly: Mixed-type reversible inhibition of bovine acetylcholinesterase using S-acetylthiocholine as substrate incubated for 20 mins prior to substrate addition measured after 3 mins by Lineweaver-Burk plot analysis.

Molecules are shown by their SMILES.

One may read the inhibition as the change of the read-out against control, counted positive when it falls. Broadly, the IC50 is the midpoint of a concentration-inhibition curve. A lower IC50 goes with higher potency. As a reminder, the Ki is the dissociation constant of the complex between target and ligand, obtained from inhibition or displacement. A low value points to a stronger hold on the target.

Cholinesterase (Equus caballus), sequence (P81908 whole entry): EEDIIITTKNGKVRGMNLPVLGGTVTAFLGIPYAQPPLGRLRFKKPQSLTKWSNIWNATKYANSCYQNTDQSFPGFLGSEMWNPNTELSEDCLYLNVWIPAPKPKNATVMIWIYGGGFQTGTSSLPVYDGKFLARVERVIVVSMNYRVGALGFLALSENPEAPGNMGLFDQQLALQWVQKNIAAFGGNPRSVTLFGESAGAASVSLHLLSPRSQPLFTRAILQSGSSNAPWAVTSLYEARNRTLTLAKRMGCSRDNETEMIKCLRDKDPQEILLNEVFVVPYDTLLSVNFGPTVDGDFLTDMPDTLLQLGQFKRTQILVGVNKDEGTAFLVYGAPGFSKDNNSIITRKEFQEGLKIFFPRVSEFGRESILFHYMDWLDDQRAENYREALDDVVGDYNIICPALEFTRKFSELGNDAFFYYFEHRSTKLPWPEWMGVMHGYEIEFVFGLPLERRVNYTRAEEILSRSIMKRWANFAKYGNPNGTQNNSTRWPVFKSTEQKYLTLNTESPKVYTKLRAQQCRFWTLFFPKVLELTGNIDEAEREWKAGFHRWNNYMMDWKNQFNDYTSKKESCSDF
Cholinesterase, sequence (P81908 whole entry): as above
Acetylcholinesterase (Homo sapiens, UniProt P22303), sequence (P22303 whole entry): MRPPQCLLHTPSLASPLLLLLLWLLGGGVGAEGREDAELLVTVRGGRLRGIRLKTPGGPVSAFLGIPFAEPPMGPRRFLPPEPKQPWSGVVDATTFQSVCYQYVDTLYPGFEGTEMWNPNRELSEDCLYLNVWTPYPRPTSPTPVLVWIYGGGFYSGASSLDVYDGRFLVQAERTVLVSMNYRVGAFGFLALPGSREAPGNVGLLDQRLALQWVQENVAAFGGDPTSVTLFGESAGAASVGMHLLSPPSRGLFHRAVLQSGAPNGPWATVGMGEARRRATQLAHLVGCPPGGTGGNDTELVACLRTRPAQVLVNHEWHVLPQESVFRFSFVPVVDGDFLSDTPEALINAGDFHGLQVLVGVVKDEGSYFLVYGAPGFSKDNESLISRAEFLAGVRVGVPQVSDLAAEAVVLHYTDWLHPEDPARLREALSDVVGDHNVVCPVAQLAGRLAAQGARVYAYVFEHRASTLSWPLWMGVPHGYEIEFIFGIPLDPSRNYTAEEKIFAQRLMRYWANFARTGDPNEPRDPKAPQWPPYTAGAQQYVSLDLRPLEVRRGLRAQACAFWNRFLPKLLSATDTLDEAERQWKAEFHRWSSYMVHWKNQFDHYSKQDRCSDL

For `COc1cc2cc(NC(=O)CCCN(C)Cc3ccccc3)c(=O)oc2cc1OC`, the inhibition in test [1] amounted to 43%. Also, the IC50 on Acetylcholinesterase [2] was 0.33 µM.

On to `COc1ccc2cc(OC3CCN(Cc4ccccc4)CC3)c(=O)oc2c1`, for which, in test [1], the inhibition worked out at 46%. For the same molecule, on Acetylcholinesterase [2], the IC50 is 12 µM.

As for `COc1cc2cc(OCC3CCN(Cc4ccccc4)CC3)c(=O)oc2cc1OC`, the IC50 at Cholinesterase came to 3.9 µM; against Acetylcholinesterase [2], 0.021 µM.

`CN(CCC(=O)Nc1cc2ccccc2oc1=O)Cc1ccccc1` had an inhibition in test [1] of 0%. The same molecule came in with an IC50 against Acetylcholinesterase [2] of 66 µM.

Turning to `COc1cc2cc(C(=O)NCCCN(C)Cc3ccccc3)c(=O)oc2cc1OC`, the inhibition in test [1] worked out at 24%. In addition, the IC50 on Acetylcholinesterase [2] is 0.086 µM.

Take `COc1cc2cc(C(=O)OC3CCN(Cc4ccccc4)CC3)c(=O)oc2cc1OC`: in test [1], the inhibition worked out at 12%. Also, 0.014 µM corresponded to half-maximal inhibition against Acetylcholinesterase [2] (IC50).

Consider `COc1cc2cc(OC3CCN(Cc4ccccc4)CC3)c(=O)oc2cc1OC`, for which the inhibition in test [1] stood at 36%. On Acetylcholinesterase [2], this molecule had an IC50 of 1.5 µM.

As to `COc1cc2cc(C(=O)NCCCCN(C)Cc3ccccc3)c(=O)oc2cc1OC`, in test [1], the inhibition worked out at 23%. The molecule further registered an IC50 against Acetylcholinesterase [2] of 0.021 µM.

In turn, `COc1cc2cc(NC(=O)CCN(C)Cc3ccccc3)c(=O)oc2cc1OC` registered an inhibition in test [1] of 0%. Besides, the half-maximal inhibitory concentration (IC50) against Acetylcholinesterase [2] worked out at 14 µM.

`COc1cc2cc(NC(=O)CN(C)Cc3ccccc3)c(=O)oc2cc1OC` showed an inhibition in test [1] of 11%. The same molecule yielded an IC50 on Acetylcholinesterase [2] of 26 µM.

Regarding `COc1cc2cc(C(=O)NCCN(C)Cc3ccccc3)c(=O)oc2cc1OC`, the inhibition in test [1] was found to be 15%. Also, the IC50 on Acetylcholinesterase [2] was 9 µM.

In turn, `COc1cc2cc(C(=O)NC3CCN(Cc4ccccc4)CC3)c(=O)oc2cc1OC` displayed an inhibition in test [1] of 19%. At Acetylcholinesterase [2], this molecule registered an IC50 of 0.028 µM.

For the molecule `COc1cc2cc(NC(=O)[C@H]3CCC[C@@H](NCc4ccccc4)C3)c(=O)oc2cc1OC` (relative stereo), the IC50 against Acetylcholinesterase [3] came to 0.043 µM; on Cholinesterase it was 33 µM; against Acetylcholinesterase [2], 0.0076 µM. At Acetylcholinesterase [4], this molecule had a Ki of 0.0086 µM.

Turning to `CN(CCCOc1cc2ccccc2oc1=O)Cc1ccccc1`, the IC50 at Cholinesterase was found to be 4 µM; at Acetylcholinesterase [2], 4.5 µM.

On to `O=c1oc2ccccc2cc1OC1CCN(Cc2ccccc2)CC1`, for which the IC50 against Cholinesterase amounted to 7.9 µM; on Acetylcholinesterase [2], 4.5 µM.

For `COc1cc2cc(C(=O)N3CCN(Cc4ccccc4)CC3)c(=O)oc2cc1OC`, the inhibition in test [1] is 12%. Also, it took 4 µM to reach half-maximal inhibition on Acetylcholinesterase [2] (IC50).

`COc1ccc2oc(=O)c(OC3CCN(Cc4ccccc4)CC3)cc2c1`: in test [1], the inhibition stood at 34%. For the same molecule, at Acetylcholinesterase [2], the IC50 turned out to be 7.4 µM.

In turn, `COc1cc2cc(C(=O)OCCCN(C)Cc3ccccc3)c(=O)oc2cc1OC` displayed an inhibition in test [1] of 38%. On Acetylcholinesterase [2], this molecule registered an IC50 of 0.111 µM.

With `COc1cc2cc(C(=O)OCC3CCN(Cc4ccccc4)CC3)c(=O)oc2cc1OC`, the IC50 against Cholinesterase worked out at 4.7 µM; against Acetylcholinesterase [2], 0.073 µM.

Values taken from ChEMBL document CHEMBL2311409, “Design, synthesis and biological evaluation of coumarin alkylamines as potent and selective dual binding site inhibitors of acetylcholinesterase” (Bioorg Med Chem, 2013).
